Structures can show the parent of a compound that is named as a salt.
| SMILES | melting point [°C] |
| --- | --- |
| C=CC[C@H](C(N)=O)[C@@H](CC(C)C)C(=O)NC1N=C(c2cccc(OC)c2)c2ccccc2N(C)C1=O (stereo partly shown) | 225 to 230 |
| C=CC[C@H](C(N)=O)[C@@H](CC(C)C)C(=O)NC1N=C(c2ccccc2)c2cc(OC)ccc2N(C)C1=O (stereo partly shown) | 244 to 255 |
| C=CC[C@H](C(N)=O)[C@@H](CC(C)C)C(=O)NC1N=C(c2cccnc2)c2ccccc2N(C)C1=O (stereo partly shown) | 251 to 253 |
| CC(C)C[C@@H](C(=O)N[C@H]1N=C(c2ccccc2)c2ccccc2N(C)C1=O)[C@@H](CC1CC1)C(N)=O (as salt: succinate) | 146 to 148 |
| C=CC[C@H](C(N)=O)[C@@H](CC(C)C)C(=O)NC1N=C(N2CCOCC2)c2ccccc2N(C)C1=O (stereo partly drawn) [Example 19, (2R,3S) N1-[1,3-dihydro-1-methyl-2-oxo-5-(N-morpholino)-2H-1,4-benzodiazepin-3-yl]-2-(2-methylpropyl)-3-allyl-butanediamide] | 145 to 151 |
| C=CC[C@H](C(N)=O)[C@@H](CC(C)C)C(=O)NC1N=C(N(C)C)c2ccccc2N(C)C1=O (stereo partly drawn) [Example 20, (2R,3S) N1-[1,3-dihydro-1-methyl-2-oxo-5-(dimethylamino)-2H-1,4-benzodiazepin-3-yl]-2-(2-methylpropyl)-3-allyl-butanediamide] | 230 to 232 |
| C=CC[C@H](C(N)=O)[C@@H](CC(C)C)C(=O)NC1N=C(N(C)c2ccccc2)c2ccccc2N(C)C1=O (stereo partly drawn) [Example 21, (2R,3S) N1-[1,3-dihydro-1-methyl-2-oxo-5-(N-methyl-N-phenylamino)-2H-1,4-benzodiazepin-3-yl]-2-(2-methylpropyl)-3-allyl-butanediamide] | 266.6 to 267.8 |
| C=CC[C@H](C(N)=O)[C@@H](CC(C)C)C(=O)NC1N=C(N2CCCCC2)c2ccccc2N(C)C1=O (stereo partly drawn) [Example 22, (2R,3S) N1-[1,3-dihydro-1-methyl-2-oxo-5-(N-piperidinyl)-2H-1,4-benzodiazepin-3-yl]-2-(2-methylpropyl)-3-allyl-butanediamide] | 231 to 238 |
| C=CC[C@H](C(N)=O)[C@@H](CC(C)C)C(=O)NC1N=C(N2CCCCCC2)c2ccccc2N(C)C1=O (stereo partly drawn) [Example 23, (2R,3S) N1-[1,3-dihydro-1-methyl-2-oxo-5-(N-homopiperidinyl)-2H-1,4-benzodiazepin-3-yl]-2-(2-methylpropyl)-3-allyl-butanediamide] | 232 to 237 |
| C=CC[C@H](C(N)=O)[C@@H](CC(C)C)C(=O)NC1C(=O)N(C)c2ccccc2-c2ccccc21 (stereo partly drawn) [Example 47, (2R,3S) N1-[6,7-dihydro-5-methyl-6-oxo-5H-dibenz[b,d]azepin-7-yl]-2-(2-methylpropyl)-3-allyl-butanediamide] | 137 to 145 |
